Data reported in publication PMC4976316, “A pivotal role of vacuolar H^+-ATPase in regulation of lipid production in Phaeodactylum tricornutum” (Scientific Reports, 2016).

Target: T1, Vacuolar H^+-ATPase (V-ATPase) (Phaeodactylum tricornutum, UniProt B7G3I2+B7GCN4)
T1 construct: gene PHATRDRAFT_16442; native complex in microsomal membrane protein from algal cells, not purified; subunit genes not identified; with V-type proton ATPase subunit a; V-type proton ATPase catalytic subunit A; V-type proton ATPase subunit B; V-type proton ATPase subunit C; V-type proton ATPase subunit D; V-type proton ATPase subunit E; V-type proton ATPase subunit F; V-type proton ATPase subunit G; V-type proton ATPase subunit H; V-type proton ATPase subunit d
Assay: concanamycin A-sensitive ATPase activity (phosphate release) of microsomal membranes
Assay type: cell-based
Conditions: 100 nM BFA1 added to the growing culture, enzyme assayed afterwards in microsomes; days-long treatment, indirect effects possible

SMILES: CO/C1=C\C(C)=C\[C@@H](C)[C@@H](O)[C@@H](C)C/C(C)=C/C=C/[C@H](OC)[C@@H]([C@@H](C)[C@@H](O)[C@H](C)[C@@]2(O)C[C@@H](O)[C@H](C)[C@@H](C(C)C)O2)OC1=O [BFA1, bafilomycin A1]
- % decrease of V-ATPase activity at 100 nM: ~ 66%
